In patent US20230310473A1, “METHOD FOR TREATING OBESITY AND/OR HYPERTENSION” (THE ROYAL INSTITUTION FOR THE ADVANCEMENT OF …, priority 2022, published 2023):

Columns and labels:
[1] = tested on: inflammation, oxidative stress and ER stress markers in distal colon; assay: mRNA markers in distal colon of HFD obese mice; assay type: in vivo
From the text: FIG. 6L is a heat map showing all the markers in distal colon from control mice and mice fed with HFD in the presence and absence of low levan β-[2,6]-glycosidic linkages treatment.
(§1) Eight-week-old C57/b6 male mice (stock number 000664, Jackson Labs) were fed with a high fat diet (HFD) for 12 weeks in the presence and absence of levan having β-[2,6]-glycosidic linkages. More specifically, the mice were fed either standard diet (SD; 5.8% fat, 44.3% carbohydrate, 19.1% protein) or high fat (HFD; 60% fat, 20% carbohydrate, 20% protein) diet for 12 weeks. Levan having β-[2,6]-glycosidic linkages was administered by gavage (250 mg/Kg) for the last 4 weeks of HFD feeding for a subgroup of mice, the experimental group. Bodyweight, blood glucose, body composition, and lipid profile were determined. Vascular function and endothelial function markers were studied in aorta and mesenteric resistance arteries (MRA). Furthermore, body weight was measured weekly, lean and fat mass were measured by EchoMRl, blood glucose and lipid plasma levels were measured, and the thoracic aorta and mesenteric resistance arteries (MRA) were harvested and used for western blot, quantitative real time (qRT-) PCR and vascular reactivity using the wire myograph.

[2] = tested on: inflammation, oxidative stress and ER stress markers in proximal colon; assay: mRNA markers in proximal colon of angiotensin II hypertensive mice; assay type: in vivo
From the text: FIG. 9K is a heat map showing the markers in proximal colon from normotensive mice and hypertensive mice treated with and without low levan β-[2,6]-glycosidic linkages treatment.

[3] = tested on: mesenteric resistance arteries (MRA); assay: Vascular reactivity (wire myograph) of mesenteric resistance arteries from HFD obese mice; assay type: in vivo
From the text: FIG. 4B is a graph of the mesenteric relaxation percentage in function of the logarithm of the concentration of acetylcholine (endothelium dependent relaxation to Ach) for control mice (1), EXP mice (2) and HFD mice (3).
FIG. 4C is a graph of the mesenteric relaxation percentage in function of the logarithm of the concentration of sodium nitroprusside (SNP) (endothelium independent relaxation to SNP) for control mice (1), EXP mice (2) and HFD mice (3).
as §1

[4] = tested on: inflammation, oxidative stress and endoplasmic reticulum stress markers in mesenteric arteries; assay: Western blot markers in mesenteric arteries of HFD obese mice; assay type: in vivo
From the text: FIG. 4D is a western blot of P-eNOS, T-eNOS, BIP, CHOP, TNFα, P65 and GAPDH, in mesenteric arteries for the control mice, the HFD mice and the EXP mice.
as §1

[5] = tested on: inflammation, oxidative stress and endoplasmic reticulum stress markers in thoracic aorta; assay: Western blot and qRT-PCR markers in thoracic aorta of HFD obese mice; assay type: in vivo
From the text: FIG. 3D is a western blot of phospho-endothelial nitric oxide synthase (P-eNOS), […] endothelial nitric oxide synthase (T-eNOS), binding protein (BIP), C/EBP homologous protein (CHOP), tumor necrosis factor alpha (TNFα), P65 and glyceraldehyde-3-phosphate dehydrogenase (GAPDH), for the control mice, the HFD mice and the EXP mice.
FIG. 3W is a heat map showing all the markers in thoracic aorta from control mice and mice fed with HFD in the presence and absence of low levan β-[2,6]-glycosidic linkages treatment.
as §1

[6] = High fat diet (HFD) obesity mouse model: body weight, body composition, blood glucose, lipid profile; assay type: in vivo, mice; settings: for body weight: HFD-fed C57/b6 male mice, levan 250 mg/Kg by gavage, last 4 weeks of 12 weeks HFD
Experimental: as §1
Results, reported as means ± standard error (SE), were analyzed using GraphPad Prism 9 (GraphPad Software, San Diego, CA). T-tests and one-way ANOVA were used to compare certain paired parameters. Unless specified otherwise, the values for p are *p<0.05; **p<0.01; ***p<0.001; and ****p<0.0001.

[7] = Liver function (ALT, ALP) in HFD obese mice; assay type: in vivo; settings: mice with obesity; levan 250 mg/Kg gavage 4 weeks
[8] = tested on: aorta; assay: Vascular contraction and relaxation of aorta from angiotensin II hypertensive mice; assay type: in vivo
From the text: FIG. 8C is a graph showing the aorta contraction percentage in response to the log of phenylephrine (PE) concentration for control mice administered vehicle (1), EXP mice administered angiotensin II and levan (2) and mice administered angiotensin II without levan (3).
FIG. 8D is a graph showing the aorta contraction percentage in response to the log of thromboxane A analog (TXA) concentration for control mice administered vehicle (1), EXP mice administered angiotensin II and levan (2) and mice administered angiotensin II without levan (3).
FIG. 8E is a graph showing the aorta contraction percentage in response to the log of angiotensin II (Ang II) concentration for control mice administered vehicle (1), EXP mice administered angiotensin II and levan (2) and mice administered angiotensin II without levan (3).
(§2) FIG. 8F is a graph showing the aorta relaxation percentage in function of the logarithm of the concentration of acetylcholine (endothelium dependent relaxation to Ach) for control mice administered vehicle (1), EXP mice administered angiotensin II and levan (2) and mice administered angiotensin II without levan (3).
as §2, with “8G” for “8F”, “of” for “showing”, “sodium nitroprusside (SNP)” for “acetylcholine”, “independent” for “dependent”, “SNP)” for “Ach)”

[9] = tested on: inflammation, oxidative stress and endoplasmic reticulum stress markers in thoracic aorta; assay: Western blot and mRNA markers in thoracic aorta of angiotensin II hypertensive mice; assay type: in vivo
From the text: FIG. 8H is a western blot of IP3R1,p-Protein kinase-like endoplasmic reticulum kinase (PERK), t-PERK, P-eNOS, T-eNOS, BIP, NOX1, TNFα, P65, cytochrome c and GAPDH, in thoracic aorta for control mice administered vehicle (CTL), EXP mice administered angiotensin II and levan (A+L), and mice administered angiotensin II without levan (ANG).

[10] = Liver function (ALT, ALP) in angiotensin II hypertensive mice; assay type: in vivo
From the text: FIG. 11A is a graph showing the level of Alanine Aminotransferase/SGPT (ALT) in control mice administered vehicle, EXP mice administered angiotensin II and levan, and mice administered angiotensin II without levan.
FIG. 11B is a graph showing the level of alkaline phosphatase (ALP) in control mice administered vehicle, EXP mice administered angiotensin II and levan, and mice administered angiotensin II without levan.

[11] = Systolic blood pressure in angiotensin II hypertensive mice; assay type: in vivo; settings: mice with hypertension (angiotensin II); vs angiotensin II without levan
From the text: FIG. 8A is a graph showing the systolic blood pressure (BP) in function of time for control mice administered vehicle (1), EXP mice administered angiotensin II and levan (2) and mice administered angiotensin II without levan (3).

[12] = tested on: inflammation, oxidative stress and ER stress markers in distal colon; assay: mRNA markers in distal colon of angiotensin II hypertensive mice; assay type: in vivo
From the text: FIG. 10K is a heat map showing the markers in distal colon from normotensive mice and hypertensive mice treated with and without low levan β-[2,6]-glycosidic linkages treatment.

[13] = tested on: thoracic aorta; assay: Vascular reactivity (wire myograph) of thoracic aorta from HFD obese mice; assay type: in vivo
From the text: FIG. 3A a graph showing the original traces for the harvesting of the thoracic aorta from mice C, HFD and EXP, and exposing the aortas to acetylcholine (Ach) in vitro using the wire myograph (cumulative doses of Ach after precontraction to phenylephrine).
FIG. 3B is a graph of the aorta relaxation percentage in function of the logarithm of the concentration of acetylcholine (endothelium dependent relaxation to Ach) for control mice (1), EXP mice (2) and HFD mice (3).
FIG. 3C is a graph of the aorta relaxation percentage in function of the logarithm of the concentration of sodium nitroprusside (SNP) (endothelium independent relaxation to SNP) for control mice (1), EXP mice (2) and HFD mice (3).
as §1

[14] = tested on: inflammation, oxidative stress and ER stress markers in proximal colon; assay: mRNA markers in proximal colon of HFD obese mice; assay type: in vivo
From the text: FIG. 5L is a heat map showing all the markers in proximal colon from control mice and mice fed with HFD in the presence and absence of low levan β-[2,6]-glycosidic linkages treatment.
as §1

[15] = listed as low MW levan β-[2,6]-glycosidic linkages
[16] = listed as low molecular levan having β-[2,6]-glycosidic linkages
[17] = mice with obesity, levan 250 mg/Kg gavage 4 weeks
[18] = obese mice, endothelium dependent relaxation after precontraction to phenylephrine
[19] = HFD mice, levan 250 mg/Kg gavage 4 weeks, vs untreated HFD mice

With levan [low MW levan] the ER stress [1, 15] was “decreased”, the inflammation [1, 15] was “decreased” and the oxidative stress [1, 15] was “decreased”. For the same substance, the ER stress [1, 16] was “reduced”, the inflammation [1, 16] was “reduced” and the oxidative stress [1, 16] was “reduced”. The ER stress [2] was “reduced”, the inflammation [2] was “reduced” and the oxidative stress [2] was “reduced”. For the same substance, the “endothelial function of resistance arteries (mesenteric artery)” value [3, 17] was “preserve”, the “vascular function in mesenteric arteries” value [3, 17] was “improved” and the “vascular response to acetylcholine (Ach), MRA” value [3, 18] was “improved”. The endoplasmic reticulum stress [4, 15] was “decreased”, the inflammation [4, 15] was “decreased” and the oxidative stress [4, 15] was “decreased”. The endoplasmic reticulum stress ([4]; listed as low levan) was “significantly reduced”, the inflammation ([4]; listed as low levan) was “significantly reduced” and the oxidative stress ([4]; listed as low levan) was “significantly reduced”. The endoplasmic reticulum stress [5] was “significantly reduced”, the inflammation [5] was “significantly reduced” and the oxidative stress [5] was “significantly reduced”. For the same substance, the endoplasmic reticulum stress [5, 15] was “decreased”, the inflammation [5, 15] was “decreased” and the oxidative stress [5, 15] was “decreased”. For the same substance, the lipid profile ([6]; HFD mice with obesity, levan 250 mg/Kg gavage 4 weeks) was “improved”, the fat mass % ([6]; HFD mice, levan 250 mg/Kg gavage 4 weeks, EchoMRI, vs untreated HFD mice) was “significantly decreased” and the lean mass % ([6]; HFD mice, levan 250 mg/Kg gavage 4 weeks, EchoMRI, vs untreated HFD mice, listed as low MW levan β-[2,6]-glycosidic linkages) was “increased”. The lean mass % ([6]; HFD mice, levan 250 mg/Kg gavage 4 weeks, EchoMRI, vs untreated HFD mice, listed as low molecular weight levan having β-[2,6]-glycosidic linkages) was “significantly increased”, the HDL [6, 19] was “significantly decreased” and the LDL [6, 19] was “significantly decreased”. For the same substance, the blood glucose [6, 19] was “significantly decreased”, the total cholesterol [6, 19] was “significantly decreased” and the triglyceride [6, 19] was “significantly decreased”. For the same substance, the body weight ([6]; vs untreated HFD mice, listed as Low MW levan β-[2,6]-glycosidic linkages) was “reduced”, the body weight ([6]; vs untreated HFD mice, listed as low molecular weight levan having β-[2,6]-glycosidic linkages) was “decreased” and the “liver function (ALT, ALP)” value [7] was “improved”. The “toxicity of the dose used” value [7] was “not toxic”, the vascular relaxation ([8]; hypertensive mice, aorta) was “improving” and the exacerbated vascular contraction ([8]; hypertensive mice, aorta contraction to PE, TXA, Ang II) was “reducing”. The “vascular function in the aorta” value ([8]; mice with hypertension (angiotensin II)) was “improved”, the endoplasmic reticulum stress [9] was “significantly reduced” and the inflammation [9] was “significantly reduced”. For the same substance, the oxidative stress [9] was “significantly reduced”, the “damage to the liver function (ALT, ALP)” value [10] was “did not cause damage” and the “toxicity of dose and treatment period” value [10] was “not toxic”. The blood pressure [11] was “reduced”, the ER stress [12] was “reduced” and the inflammation [12] was “reduced”. For the same substance, the oxidative stress [12] was “reduced”, the “endothelial function of conductance artery (thoracic aortic)” value [13, 17] was “preserve” and the “vascular function in aorta” value [13, 17] was “improved”. The “vascular response to acetylcholine (Ach), aorta” value [13, 18] was “improved”, the ER stress [14, 15] was “decreased” and the inflammation [14, 15] was “decreased”. The oxidative stress [14, 15] was “decreased”, the ER stress [14, 16] was “reduced” and the inflammation [14, 16] was “reduced”. The oxidative stress [14, 16] was “reduced”.
